Measurements published in ChEMBL document CHEMBL3885881, “DrugMatrix”.

Organism: Rattus norvegicus
Assay: DrugMatrix - Regimen: Daily Repeat
Assay type: toxicity, organism-based, Sprague-Dawley
Parameters: regimen Daily Repeat, gender Male, age 6-8 weeks
Details: in vivo, po, 10 mg/kg, route oral GAVAGE, dose level Low, […]; for ABSOLUTE BASOPHIL / ABSOLUTE EOSINOPHIL / ABSOLUTE LYMPHOCYTE / ABSOLUTE MONOCYTE / ABSOLUTE SEGMENTED NEUTROPHIL / BASOPHIL / EOSINOPHIL / HEMATOCRIT / HEMOGLOBIN / LEUKOCYTE COUNT / LYMPHOCYTE / MEAN CORPUSCULAR HEMOGLOBIN / MEAN CORPUSCULAR HEMOGLOBIN CONCENTRATION / MEAN CORPUSCULAR VOLUME / MONOCYTE / NEUTROPHIL / NUCLEATED RED BLOOD CELLS / PLATELET COUNT: tissue Blood; for ALANINE AMINOTRANSFERASE / ALBUMIN / ALKALINE PHOSPHATASE / ASPARTATE AMINOTRANSFERASE / BLOOD UREA NITROGEN / CARBON DIOXIDE / CHLORIDE / CHOLESTEROL / CREATINE PHOSPHOKINASE / CREATININE / GLUCOSE / LIPASE / PHOSPHORUS / POTASSIUM / SODIUM / TOTAL BILIRUBIN / TOTAL PROTEIN / URIC ACID: tissue Plasma

**Q.** With `CN1CCN2c3ccccc3Cc3ccccc3C2C1` (configuration not stated) [MIANSERIN] as the compound, how does the “ABSOLUTE BASOPHIL” value (72 h, time 3 day) read?
**A.** Its value is 0 CELLS/uL.

**Q.** And the “ABSOLUTE EOSINOPHIL” value (72 h, time 3 day)?
**A.** The value was 54.33 CELLS/uL.

**Q.** And the “ABSOLUTE LYMPHOCYTE” value (72 h, time 3 day)?
**A.** The value was 11772.33 CELLS/uL.

**Q.** And the “ABSOLUTE MONOCYTE” value (72 h, time 3 day)?
**A.** The value was 287.33 CELLS/uL.

**Q.** What about the “ABSOLUTE SEGMENTED NEUTROPHIL” value (72 h, time 3 day) of the same compound?
**A.** Its value is 1319.33 CELLS/uL.

**Q.** What about the BASOPHIL (72 h, time 3 day) of the same compound?
**A.** The BASOPHIL was 0%.

**Q.** What about the EOSINOPHIL (72 h, time 3 day) of the same compound?
**A.** Its EOSINOPHIL is 0.33%.

**Q.** And the HEMATOCRIT (72 h, time 3 day)?
**A.** Its HEMATOCRIT is 34.47%.

**Q.** And the HEMOGLOBIN (72 h, time 3 day)?
**A.** Its HEMOGLOBIN is 13.1 G/DL.

**Q.** What about the “LEUKOCYTE COUNT” value (72 h, time 3 day) of the same compound?
**A.** Its value is 13.43 x10E3/uL.

**Q.** And the LYMPHOCYTE (72 h, time 3 day)?
**A.** The LYMPHOCYTE was 88.33%.

**Q.** And the “MEAN CORPUSCULAR HEMOGLOBIN” value (72 h, time 3 day)?
**A.** Its value is 23.57 pg.

**Q.** What about the “MEAN CORPUSCULAR HEMOGLOBIN CONCENTRATION” value (72 h, time 3 day) of the same compound?
**A.** Its value is 38 G/DL.

**Q.** And the “MEAN CORPUSCULAR VOLUME” value (72 h, time 3 day)?
**A.** Its value is 61.97 fL.

**Q.** And the MONOCYTE (72 h, time 3 day)?
**A.** The MONOCYTE was 2%.

**Q.** What about the NEUTROPHIL (72 h, time 3 day) of the same compound?
**A.** The NEUTROPHIL was 9.33%.

**Q.** What about the “NUCLEATED RED BLOOD CELLS” value (72 h, time 3 day) of the same compound?
**A.** Its value is 0 /100WBC.

**Q.** What about the “PLATELET COUNT” value (72 h, time 3 day) of the same compound?
**A.** The value was 1172 x10E3/uL.

**Q.** What about the “ALANINE AMINOTRANSFERASE” value (72 h, time 3 day) of the same compound?
**A.** The value was 74.67 u/L.

**Q.** What about the ALBUMIN (72 h, time 3 day) of the same compound?
**A.** Its ALBUMIN is 4.4 G/DL.

**Q.** And the “ALKALINE PHOSPHATASE” value (72 h, time 3 day)?
**A.** The value was 433.33 u/L.

**Q.** And the “ASPARTATE AMINOTRANSFERASE” value (72 h, time 3 day)?
**A.** The value was 111 u/L.

**Q.** And the “BLOOD UREA NITROGEN” value (72 h, time 3 day)?
**A.** The value was 16.33 mg/dL.

**Q.** What about the “CARBON DIOXIDE” value (72 h, time 3 day) of the same compound?
**A.** Its value is 20.67 mmol/L.

**Q.** What about the CHLORIDE (72 h, time 3 day) of the same compound?
**A.** Its CHLORIDE is 107 MEQ/L.

**Q.** What about the CHOLESTEROL (72 h, time 3 day) of the same compound?
**A.** The CHOLESTEROL was 81 mg/dL.

**Q.** And the “CREATINE PHOSPHOKINASE” value (72 h, time 3 day)?
**A.** Its value is 603 u/L.

**Q.** What about the CREATININE (72 h, time 3 day) of the same compound?
**A.** The CREATININE was 0.28 mg/dL.

**Q.** And the GLUCOSE (72 h, time 3 day)?
**A.** Its GLUCOSE is 162.67 mg/dL.

**Q.** And the LIPASE (72 h, time 3 day)?
**A.** Its LIPASE is 12 u/L.

**Q.** And the PHOSPHORUS (72 h, time 3 day)?
**A.** The PHOSPHORUS was 12.3 mg/dL.

**Q.** And the POTASSIUM (72 h, time 3 day)?
**A.** Its POTASSIUM is 6.52 MEQ/L.

**Q.** What about the SODIUM (72 h, time 3 day) of the same compound?
**A.** The SODIUM was 150.33 MEQ/L.

**Q.** And the “TOTAL BILIRUBIN” value (72 h, time 3 day)?
**A.** The value was 0.27 mg/dL.

**Q.** And the “TOTAL PROTEIN” value (72 h, time 3 day)?
**A.** The value was 6.23 G/DL.

**Q.** And the “URIC ACID” value (72 h, time 3 day)?
**A.** Its value is 1.93 mg/dL.

**Q.** What about the “ABSOLUTE BASOPHIL” value (120 h, time 5 day) of the same compound?
**A.** The value was 0 CELLS/uL.

**Q.** And the “ABSOLUTE EOSINOPHIL” value (120 h, time 5 day)?
**A.** The value was 0 CELLS/uL.

**Q.** What about the “ABSOLUTE LYMPHOCYTE” value (120 h, time 5 day) of the same compound?
**A.** Its value is 13210.67 CELLS/uL.

**Q.** What about the “ABSOLUTE MONOCYTE” value (120 h, time 5 day) of the same compound?
**A.** The value was 71.33 CELLS/uL.

**Q.** What about the “ABSOLUTE SEGMENTED NEUTROPHIL” value (120 h, time 5 day) of the same compound?
**A.** Its value is 1118 CELLS/uL.

**Q.** And the BASOPHIL (120 h, time 5 day)?
**A.** Its BASOPHIL is 0%.

**Q.** What about the EOSINOPHIL (120 h, time 5 day) of the same compound?
**A.** The EOSINOPHIL was 0%.

**Q.** What about the HEMATOCRIT (120 h, time 5 day) of the same compound?
**A.** Its HEMATOCRIT is 37.27%.

**Q.** What about the HEMOGLOBIN (120 h, time 5 day) of the same compound?
**A.** The HEMOGLOBIN was 13.67 G/DL.

**Q.** And the “LEUKOCYTE COUNT” value (120 h, time 5 day)?
**A.** The value was 14.4 x10E3/uL.

**Q.** And the LYMPHOCYTE (120 h, time 5 day)?
**A.** The LYMPHOCYTE was 92%.

**Q.** What about the “MEAN CORPUSCULAR HEMOGLOBIN” value (120 h, time 5 day) of the same compound?
**A.** The value was 23.9 pg.

**Q.** And the “MEAN CORPUSCULAR HEMOGLOBIN CONCENTRATION” value (120 h, time 5 day)?
**A.** The value was 36.73 G/DL.

**Q.** And the “MEAN CORPUSCULAR VOLUME” value (120 h, time 5 day)?
**A.** The value was 65.03 fL.

**Q.** And the MONOCYTE (120 h, time 5 day)?
**A.** Its MONOCYTE is 0.33%.

**Q.** And the NEUTROPHIL (120 h, time 5 day)?
**A.** The NEUTROPHIL was 7.67%.

**Q.** And the “NUCLEATED RED BLOOD CELLS” value (120 h, time 5 day)?
**A.** The value was 0 /100WBC.

**Q.** What about the “PLATELET COUNT” value (120 h, time 5 day) of the same compound?
**A.** Its value is 1241.33 x10E3/uL.

**Q.** And the “ALANINE AMINOTRANSFERASE” value (120 h, time 5 day)?
**A.** The value was 77.67 u/L.

**Q.** And the ALBUMIN (120 h, time 5 day)?
**A.** The ALBUMIN was 4.3 G/DL.

**Q.** What about the “ALKALINE PHOSPHATASE” value (120 h, time 5 day) of the same compound?
**A.** The value was 439.33 u/L.

**Q.** And the “ASPARTATE AMINOTRANSFERASE” value (120 h, time 5 day)?
**A.** The value was 87.33 u/L.

**Q.** What about the “BLOOD UREA NITROGEN” value (120 h, time 5 day) of the same compound?
**A.** Its value is 16.67 mg/dL.

**Q.** And the “CARBON DIOXIDE” value (120 h, time 5 day)?
**A.** The value was 24.67 mmol/L.

**Q.** And the CHLORIDE (120 h, time 5 day)?
**A.** Its CHLORIDE is 105.33 MEQ/L.

**Q.** What about the CHOLESTEROL (120 h, time 5 day) of the same compound?
**A.** The CHOLESTEROL was 62 mg/dL.

**Q.** And the “CREATINE PHOSPHOKINASE” value (120 h, time 5 day)?
**A.** Its value is 238.33 u/L.

**Q.** And the CREATININE (120 h, time 5 day)?
**A.** The CREATININE was 0.16 mg/dL.

**Q.** What about the GLUCOSE (120 h, time 5 day) of the same compound?
**A.** Its GLUCOSE is 176.33 mg/dL.

**Q.** What about the LIPASE (120 h, time 5 day) of the same compound?
**A.** Its LIPASE is 11 u/L.

**Q.** What about the PHOSPHORUS (120 h, time 5 day) of the same compound?
**A.** The PHOSPHORUS was 13.77 mg/dL.

**Q.** What about the POTASSIUM (120 h, time 5 day) of the same compound?
**A.** The POTASSIUM was 7.05 MEQ/L.

**Q.** What about the SODIUM (120 h, time 5 day) of the same compound?
**A.** Its SODIUM is 148.43 MEQ/L.

**Q.** What about the “TOTAL BILIRUBIN” value (120 h, time 5 day) of the same compound?
**A.** The value was 0.23 mg/dL.

**Q.** And the “TOTAL PROTEIN” value (120 h, time 5 day)?
**A.** Its value is 6.13 G/DL.

**Q.** And the “URIC ACID” value (120 h, time 5 day)?
**A.** The value was 2.37 mg/dL.
